We go through 1 molecule from patent US20230000835A1, “LYSINE-SPECIFIC HISTONE DEMETHYLASE INHIBITORS FOR THE TREATMENT OF MYELOPROLIFERATIVE NEOPLASMS” (Imago Biosciences, Inc., priority 2019, published 2023).

Where a name gives a salt, the structure may show the parent alone.

Assay type in all cases: in vivo, human
In assay [1] the test system is patients with high-risk MF. Kind of assay: Phase 1/2a clinical study in myelofibrosis: MPN-SAF / MPN-10 symptom score. The text has this:
In certain embodiments, said patient-reported survey is the Myeloproliferative Neoplasm Symptom Assessment Form (MPN-SAF). The MPN-SAF is a validated clinical assessment form for the most common symptoms of myeloproliferative neoplasms, in which patients self-reports their score, on a scale of 1-10, of various common symptoms, where 1 is the most favorable or the symptom is absent, and 10 is the least favorable or the symptom is the worst imaginable. See, e.g., Scherber R et al., The Myeloproliferative Neoplasm Symptom Assessment Form (MPN-SAF): International Prospective Validation and Reliability Trial in 402 patients,” Blood 118(2):401-08 (2014). Either the full or abbreviated forms may be administered to the patient. In the abbreviated version, a “total symptom score” (TSS) may be calculated from the ten most clinically relevant symptoms from the 17-item MPN-SAF: worst fatigue, concentration, early satiety, inactivity, night sweats, itching, bone pain, abdominal discomfort, weight loss, and fever. The MPN-SAF TSS thus has a possible range of 0 to 100. Quality of life scores are defined as “clinically deficient” when they rate as at least 4 of 10; “moderate” if symptoms are rated as ≥4 of 10 or ≤6 of 10; and “severe” if symptoms are rated as ≥7 of 10. For patients who complete at least six of these 10 items on the BFI and MPN-SAF, the MPN TSS is computed as the average of the observed items multiplied by 10 to achieve a 0-to-100 scale. See, e.g., Emanuel R M et al., “Myeloproliferative neoplasm (MPN) symptom assessment form total symptom score: prospective international assessment of an abbreviated symptom burden scoring system among patients with MPNs,” J Clin Oncol 30(33):4098-103 (2012). […]
The Phase 1/2A portion of the study assessed: the safety of the original starting dose, 0.25 mg/kg/d; an 85-day duration of treatment with a subsequent washout period of up to 28 days; and, pharmacokinetic and drug concentration measurements. […]

Assay [2] concerns inflammatory cytokines and circulating growth factors. Kind of assay: Phase 1/2a clinical study: inflammatory cytokines and circulating growth factors. As to the method:
(§1) A multi-center, open-label study evaluating the safety, tolerability, steady-state pharmacokinetics and pharmacodynamics of Compound 1 administered orally once daily in patients with high-risk MF, including primary myelofibrosis (PMF), post-polycythemia vera myelofibrosis (PPV-MF), and post-essential thrombocythemia myelofibrosis (PET-MF) (collectively referred to as ‘MF’) was initiated as a Phase 1/2A study, and was expanded to a Phase 2b study.
This study was conducted at multiple sites. Up to 50 patients, eighteen years of age or older, with high-risk myelofibrosis were treated. The primary objectives included safety and tolerability, pharmacokinetics (PK; Phase 1/2A only) and spleen volume reduction (SVR). […] Key inclusion criteria included: high- or intermediate-2 risk myelofibrosis; per the Investigator's judgment have failed (refractory or resistant to, inadequately controlled by or intolerant of), or are not a candidate for, available approved therapy including ruxolitinib; platelet count ≥100K/μL; and, circulating blasts ≤10%.
One strategy to reduce the excess products of megakaryocytes is to target megakaryocyte maturation and function. The effectiveness of a treatment targeting the megakaryocyte may be quantified by measuring the products of megakaryocytes, e.g., platelets in circulation or inflammatory cytokines and growth factors in plasma or serum.

In the next assay the test system is bone marrow fibrosis. Nature of the assay: Phase 1/2a clinical study: bone marrow fibrosis grade. The note with it: Day 0 to Day 84 or EoT; 13 patients with biopsies.
Description: as §1
All but one patient had received one or more prior treatments including ruxolitinib. 48% had PMF, 33% PET-MF, 19% PPV-MF. The median patient age was 65 years (48-89) with 58% males. 48% were classified as high risk (IPSS), the remainder, intermediate risk-2. […] A substantial fraction of the patients had ≥3 mutations. Patients were treated daily for 12 weeks, in accordance with above starting dose and titration rules, followed by a washout period of up to 28 days. Starting platelet counts ranged from about 141 to about 1309 k/μL. Bone marrow biopsies and imaging studies of the abdomen were conducted prior to treatment and during the washout period after 12 weeks of dosing. Grading of myelofibrosis was performed centrally using the 2016 revised World Health Organization classification of myeloid neoplasia (Arber et al., 2016); image reading was also performed centrally. […]

As to `CN1CCN(C(=O)[C@H](CCCN[C@@H]2C[C@H]2c2ccc(F)cc2)NC(=O)c2ccc(-n3ccnn3)cc2)CC1` [Compound 1, N-[(2S)-5-{[(1R, 2S)-2-(4-fluorophenyl)cyclopropyl]amino}-1-(4-methylpiperazin-1-yl)-1-oxopentan-2-yl]-4-(1H-1,2,3-triazol-1-yl)benzamide, bis-tosylate salt], the “effect on myelofibrosis symptoms” value in assay [1] (evaluable patients N=14, 85-day cycle) is given as “profound effect on myelofibrosis symptoms”. The “number of patients with improved scores of fatigue” value in assay [1] (of the first 16 patients, within 14 days) was found to be 8. The “patients with a decrease in symptom score (MPN-10)” value in assay [1] (week 24, Phase 1/2a) stood at 89%. Moreover, in assay [2] (in the course of treatment), the “levels of CCL3, IL-6, IL-10, IL-33, IL-28A, IFNβ, IFNα, IFNγ” value was “not elevated in any patient”. Besides, the “change in inflammatory cytokine S100A9” value in assay [2] (week 12, FIG. 4) is on record as “generally decreased”. Besides, the “change in inflammatory cytokine RANTES” value in assay [2] (week 12, FIG. 5) is reported as “generally decreased”. Also, the “change in inflammatory cytokine IL-8” value in assay [2] (week 12, FIG. 6) is “generally decreased”. The “change in circulating growth factor VEGF” value in assay [2] (week 12, FIG. 7) is “generally decreased”. The “change in circulating growth factor PDGF-BB” value in assay [2] (week 12, FIG. 8) is listed as “generally decreased”. In addition, in the assay with bone marrow fibrosis, the “patients with a stable fibrosis score” value is 62% and the “patients with improvement of bone marrow fibrosis of ≥1 grade” value stood at 15%.
